Results on 1 compound are retold here after US11840525B2, “Use of AURKB small-molecule inhibitors for treatment of non-small cell lung cancer” (Nanjing China-Australia Institute of Translational Medicine …, priority 2016, dated 2023).

The test system of one experiment is A549 cells. The experiment is described as follows: Transwell cell migration test. The class given is cell-based. The settings on record: 2 μM, 12 h. As to the method: In addition, Transwell test was also conducted to determine the effect of the expression level of AURKB on the cell migration ability. Similarly, TZ47 (2 μM) was used to treat cells in the Transwell test. […] At the same time, compared to the control scr cells, AURKB-kd cells can partially antagonize the inhibitory effect of TZ47 on cell migration (FIGS. 10A-10B). […] The specific steps were described as follows. • a. Cell migration test • 1) The cells to be tested in the logarithmic growth phase was digested with trypsin and centrifuged to collect the cells. Then the cells were washed once with PBS and resuspended with serum-free DMEM for counting. • 2) 500 μl, of DMEM medium containing 10% FBS was added to a 24-well plate and a Transwell chamber was carefully placed into the plate to prevent air bubbles. Then 100 μL of cell suspension (about 50,000 cells) was added to the Transwell chamber, and a TZ47 solution (final concentration: 2 μM) was simultaneously added to the TZ47 treatment group. The 24-well plate was incubated at 37° C. and 5% CO2 in a cell incubator for 12 h. • 3) The Transwell chamber was removed from the plate and washed in PBS to remove the medium. […]

Experiment [1] relates to H3S10 ph near the E2F2 promoter in A549 cells. The experiment is described as follows: ChIP assay of H3S10 ph near the E2F2 promoter. The class given is cell-based. The settings on record: TZ47-treated A549 cells. Here is the method: A549 cells were treated by different concentrations of TZ47, and then total RNAs and total proteins of cells were extracted to detect the expression of gene E2F2. […] To further verify the above results, A549 cells were treated with TZ47 and extracted for chromatin, and the chromatin and an H3S10 ph-specific antibody were then used in the ChIP assay. […] It can be seen from the above tests that TZ47 can inhibit the AURKB activity and further inhibit the level of AURKB histone substrate H3S10 ph on the promoter of gene E2F2, affecting the expression of gene E2F2.
The specific steps were described as follows. • a. Detailed steps and conditions for Western blot assay and real-time quantitative PCR test have been described in the above Examples. • b. Chromatin co-immunoprecipitation (ChIP) • 1) In vivo cross-linking of DNA-protein complex
2×10^6-7 cells were collected by low-speed centrifugation, resuspended in 20 mL of RPMI 1640 medium, added with 550 μL of a 37% formalin solution in a fuming cupboard to a final concentration of 1% and incubated for 10 min. The system was mixed 2-3 times during the incubation. • 2) Termination of cross-linking
The cross-linking system was added with 1.35 mL of 2 M glycine (final concentration: 0.1 M), mixed uniformly and incubated for 10 min. […]
The OD260 value of the supernatant was determined and used to calculate the DNA concentration. […]

Structures are written as SMILES.

With `c1ccc2c(Cc3[nH]c4ccccc4c3Cc3c[nH]c4ccccc34)c[nH]c2c1` [TZ47], in the experiment on A549 cells, the “migration ability of cells” value is reported as “significantly showed inhibitory effect”. The “enrichment of histone H3S10 ph near the E2F2 promoter” value in experiment [1] is recorded as “significantly reduced”.
